Data as given in patent US11739098B2 (BRISTOL-MYERS SQUIBB COMPANY, priority 2017, dated 2023).

Assays:
Type in all cases: cell-based
human TLR7 = target: T1, human TLR7 (Homo sapiens, UniProt Q9NYK1); assay: TLR7 inhibition reporter assay (HEK-Blue cells, SEAP reporter, gardiquimod stimulation); conditions: HEK-Blue cells overexpressing human TLR7, SEAP reporter, gardiquimod 7.5 μM
T1 construct: host or cells: HEK-Blue cells (HEK293-derived reporter line)
T1 sequence (Q9NYK1 27-1049): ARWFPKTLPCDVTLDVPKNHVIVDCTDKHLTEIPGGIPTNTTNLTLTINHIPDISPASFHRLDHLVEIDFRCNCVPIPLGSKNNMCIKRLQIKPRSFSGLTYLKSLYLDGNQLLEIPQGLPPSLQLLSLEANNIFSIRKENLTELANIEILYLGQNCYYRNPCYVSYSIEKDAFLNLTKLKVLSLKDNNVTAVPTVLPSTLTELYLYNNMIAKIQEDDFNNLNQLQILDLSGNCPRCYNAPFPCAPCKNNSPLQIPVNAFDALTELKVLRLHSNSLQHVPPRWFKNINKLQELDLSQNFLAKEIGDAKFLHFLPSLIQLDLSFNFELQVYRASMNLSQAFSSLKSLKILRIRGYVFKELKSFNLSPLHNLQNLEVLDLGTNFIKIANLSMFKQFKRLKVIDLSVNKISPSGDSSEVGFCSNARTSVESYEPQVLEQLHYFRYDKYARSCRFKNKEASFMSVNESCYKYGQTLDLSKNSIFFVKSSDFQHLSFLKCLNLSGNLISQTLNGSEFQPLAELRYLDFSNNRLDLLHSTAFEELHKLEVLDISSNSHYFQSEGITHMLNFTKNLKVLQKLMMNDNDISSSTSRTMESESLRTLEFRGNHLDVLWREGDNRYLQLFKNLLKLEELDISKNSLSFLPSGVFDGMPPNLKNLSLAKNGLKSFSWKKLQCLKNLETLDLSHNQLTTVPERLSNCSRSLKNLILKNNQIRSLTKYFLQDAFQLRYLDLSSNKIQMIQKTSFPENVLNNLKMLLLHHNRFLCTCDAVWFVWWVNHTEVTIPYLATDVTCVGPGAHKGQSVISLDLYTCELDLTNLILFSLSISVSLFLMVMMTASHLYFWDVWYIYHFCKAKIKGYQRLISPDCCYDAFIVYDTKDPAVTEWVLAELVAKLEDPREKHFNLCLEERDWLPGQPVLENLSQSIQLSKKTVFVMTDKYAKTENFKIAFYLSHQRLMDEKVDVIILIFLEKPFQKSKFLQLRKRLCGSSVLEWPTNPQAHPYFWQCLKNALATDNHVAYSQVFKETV
How it was run: (§1)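 Cells seeded per well (15000 TLR7, 20,000 TLR8, 25,000 TLR9); compound added over 0.05 nM–50 μM for 30 min at room temperature; agonist added (TLR7 gardiquimod 7.5 μM, TLR8 R848 15.9 μM, TLR9 ODN2006 5 nM); 22 h at 37 °C; SEAP measured; percent inhibition calculated.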

human TLR8 = target: T2, human TLR8 (Homo sapiens, UniProt Q9NR97); assay: TLR8 inhibition reporter assay (HEK-Blue cells, SEAP reporter, R848 stimulation); conditions: HEK-Blue cells overexpressing human TLR8, SEAP reporter, R848 15.9 μM
T2 construct: host or cells: HEK-Blue cells (HEK293-derived reporter line)
T2 sequence (Q9NR97 27-1041): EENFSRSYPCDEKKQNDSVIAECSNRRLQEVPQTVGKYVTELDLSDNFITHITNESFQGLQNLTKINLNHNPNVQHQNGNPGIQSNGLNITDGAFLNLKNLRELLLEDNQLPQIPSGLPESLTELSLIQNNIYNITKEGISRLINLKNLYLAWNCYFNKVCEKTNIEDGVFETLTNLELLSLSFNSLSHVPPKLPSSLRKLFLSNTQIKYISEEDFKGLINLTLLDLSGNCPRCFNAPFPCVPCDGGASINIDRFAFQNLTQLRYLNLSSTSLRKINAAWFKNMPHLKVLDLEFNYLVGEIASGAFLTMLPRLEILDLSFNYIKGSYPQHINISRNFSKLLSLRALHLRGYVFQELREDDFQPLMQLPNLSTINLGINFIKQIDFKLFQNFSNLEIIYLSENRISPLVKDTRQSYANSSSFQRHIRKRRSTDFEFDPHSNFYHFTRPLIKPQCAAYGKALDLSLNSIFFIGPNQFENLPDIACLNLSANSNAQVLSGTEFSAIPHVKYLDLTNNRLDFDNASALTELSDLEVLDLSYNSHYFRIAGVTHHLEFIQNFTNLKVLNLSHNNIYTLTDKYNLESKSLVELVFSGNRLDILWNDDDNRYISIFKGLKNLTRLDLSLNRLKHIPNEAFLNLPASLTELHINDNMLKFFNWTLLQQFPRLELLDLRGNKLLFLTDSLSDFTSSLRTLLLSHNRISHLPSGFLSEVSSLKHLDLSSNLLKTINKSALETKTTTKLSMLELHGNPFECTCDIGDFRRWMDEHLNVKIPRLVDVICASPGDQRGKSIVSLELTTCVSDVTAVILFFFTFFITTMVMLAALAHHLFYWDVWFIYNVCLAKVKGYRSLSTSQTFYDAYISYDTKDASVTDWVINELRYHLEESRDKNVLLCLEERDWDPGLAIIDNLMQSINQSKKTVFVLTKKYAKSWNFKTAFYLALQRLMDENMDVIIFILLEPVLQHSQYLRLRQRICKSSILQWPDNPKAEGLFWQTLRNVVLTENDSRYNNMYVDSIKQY
How it was run: as §1

human TLR9 = target: T3, human TLR9 (Homo sapiens, UniProt Q9NR96); assay: TLR9 inhibition reporter assay (HEK-Blue cells, SEAP reporter, ODN2006 stimulation); conditions: HEK-Blue cells overexpressing human TLR9, SEAP reporter, ODN2006 5 nM
T3 construct: host or cells: HEK-Blue cells (HEK293-derived reporter line)
T3 sequence (Q9NR96 26-1032): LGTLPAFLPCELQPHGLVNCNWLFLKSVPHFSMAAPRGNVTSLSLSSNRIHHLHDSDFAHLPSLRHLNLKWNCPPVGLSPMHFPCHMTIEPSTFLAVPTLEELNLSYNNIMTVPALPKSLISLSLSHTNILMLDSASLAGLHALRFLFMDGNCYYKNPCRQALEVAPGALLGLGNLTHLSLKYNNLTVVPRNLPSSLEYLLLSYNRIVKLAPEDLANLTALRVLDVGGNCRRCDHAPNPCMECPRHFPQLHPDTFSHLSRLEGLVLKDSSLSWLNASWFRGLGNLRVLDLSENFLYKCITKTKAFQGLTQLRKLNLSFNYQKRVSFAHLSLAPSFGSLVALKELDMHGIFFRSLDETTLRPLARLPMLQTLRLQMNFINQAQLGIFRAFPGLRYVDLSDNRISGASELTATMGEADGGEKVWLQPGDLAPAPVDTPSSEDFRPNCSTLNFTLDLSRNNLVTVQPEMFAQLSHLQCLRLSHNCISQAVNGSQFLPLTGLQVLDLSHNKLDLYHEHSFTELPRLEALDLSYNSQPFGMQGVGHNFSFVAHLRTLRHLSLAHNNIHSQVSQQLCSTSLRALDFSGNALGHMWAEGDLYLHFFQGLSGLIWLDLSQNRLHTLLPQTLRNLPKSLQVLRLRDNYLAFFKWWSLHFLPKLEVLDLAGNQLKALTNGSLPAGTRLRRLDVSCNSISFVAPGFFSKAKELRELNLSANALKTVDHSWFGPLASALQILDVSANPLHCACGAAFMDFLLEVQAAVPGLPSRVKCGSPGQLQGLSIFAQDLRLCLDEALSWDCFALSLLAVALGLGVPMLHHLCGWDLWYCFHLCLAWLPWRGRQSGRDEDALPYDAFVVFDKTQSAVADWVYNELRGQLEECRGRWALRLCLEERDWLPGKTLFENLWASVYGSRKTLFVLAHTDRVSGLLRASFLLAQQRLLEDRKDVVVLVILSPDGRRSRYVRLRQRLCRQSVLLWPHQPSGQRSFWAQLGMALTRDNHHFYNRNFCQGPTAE
How it was run: as §1

Cc1cc(-c2[nH]c3ccc(C4CCN(Cc5ccn(C)n5)CC4)cc3c2C(C)C)cn2nnnc12 [Example 884, 6-(3-isopropyl-5-(1-((1-methyl-1H-pyrazol-3-yl)methyl)piperidin-4-yl)-1H-indol-2-yl)-8-methyltetrazolo[1,5-a]pyridine]
IC50 (human TLR7): < 100 nM | IC50 (human TLR8): < 100 nM | IC50 (human TLR9): 1000 to 50000 nM

COc1cc(-c2[nH]c3ccc(C4CCN(CC#N)CC4)cc3c2C(C)C)cn2ccnc12 [Example 950, 2-(4-(3-isopropyl-2-(8-methoxyimidazo[1,2-a]pyridin-6-yl)-1H-indol-5-yl)piperidin-1-yl)acetonitrile]
IC50 (human TLR7): < 100 nM | IC50 (human TLR8): < 100 nM | IC50 (human TLR9): 100 to 1000 nM

CCc1c(-c2ccnc3[nH]ncc23)[nH]c2ccc(C3CCN(CC(N)=O)CC3)cc12 [Example 289, 2-(4-(3-ethyl-2-(1H-pyrazolo[3,4-b]pyridin-4-yl)-1H-indol-5-yl)piperidin-1-yl)acetamide]
IC50 (human TLR7): < 100 nM | IC50 (human TLR8): < 100 nM | IC50 (human TLR9): 1000 to 50000 nM

CNCCN1CCC(c2ccc3[nH]c(-c4cncc5ccccc45)c(C)c3c2)CC1 [Example 665, 2-(4-(2-(isoquinolin-4-yl)-3-methyl-1H-indol-5-yl)piperidin-1-yl)-N-methylethan-1-amine]
IC50 (human TLR7): > 50000 nM | IC50 (human TLR8): > 3130 nM | IC50 (human TLR9): 100 to 1000 nM

CNC(=O)CN1CCC(c2ccc3[nH]c(-c4cn5ccnc5c(Cl)c4C)c(C(C)C)c3c2)CC1 [Example 414, 2-(4-(2-(8-chloro-7-methylimidazo[1,2-a]pyridin-6-yl)-3-isopropyl-1H-indol-5-yl)piperidin-1-yl)-N-methylacetamide]
IC50 (human TLR7): < 100 nM | IC50 (human TLR8): < 100 nM | IC50 (human TLR9): 1000 to 50000 nM

Cc1c(-c2[nH]c3ccc(C4CCN(CC(C)(C)O)CC4)cc3c2C(C)C)ccc2c1cnn2C [Example 763, 1-(4-(2-(1,4-dimethyl-1H-indazol-5-yl)-3-isopropyl-1H-indol-5-yl)piperidin-1-yl)-2-methylpropan-2-ol]
IC50 (human TLR7): < 100 nM | IC50 (human TLR8): < 100 nM | IC50 (human TLR9): 1000 to 50000 nM

Cc1cc(-c2[nH]c3ccc(C4CCNCC4)cc3c2C(C)C)cc2nccn12 [Example 161, 7-(3-isopropyl-5-(piperidin-4-yl)-1H-indol-2-yl)-5-methylimidazo[1,2-a]pyridine]
IC50 (human TLR7): 100 to 1000 nM | IC50 (human TLR8): < 100 nM | IC50 (human TLR9): 100 to 1000 nM

CNCC(=O)N1CCC(c2ccc3[nH]c(-c4cnc5ccnn5c4)c(C(C)C)c3c2)CC1 [Example 503, 1-(4-(3-isopropyl-2-(pyrazolo[1,5-a]pyrimidin-6-yl)-1H-indol-5-yl)piperidin-1-yl)-2-(methylamino)ethan-1-one]
IC50 (human TLR7): 100 to 1000 nM | IC50 (human TLR8): > 3130 nM | IC50 (human TLR9): 100 to 1000 nM

CC(C)c1c(-c2cc(Cl)c3ncccc3c2)[nH]c2ccc(C3CCNCC3)cc12 [Example 139, 8-chloro-6-(3-isopropyl-5-(piperidin-4-yl)-1H-indol-2-yl)quinoline]
IC50 (human TLR7): < 100 nM | IC50 (human TLR8): < 100 nM | IC50 (human TLR9): 1000 to 50000 nM

CNC(=O)c1cn2cc(-c3[nH]c4ccc(C5CCN(CC(=O)N(C)C)CC5)cc4c3C(C)C)cc(C)c2n1 [Example 346, 6-(5-(1-(2-(dimethylamino)-2-oxoethyl)piperidin-4-yl)-3-isopropyl-1H-indol-2-yl)-N,8-dimethylimidazo[1,2-a]pyridine-2-carboxamide]
IC50 (human TLR7): < 100 nM | IC50 (human TLR8): < 100 nM | IC50 (human TLR9): 1000 to 50000 nM

CC(C)c1c(-c2ccc3nccn3c2)[nH]c2ccc(C3CCN(C(=O)[C@@H]4CCCNC4)CC3)cc12 [Example 639, (R)-(4-(2-(imidazo[1,2-a]pyridin-6-yl)-3-isopropyl-1H-indol-5-yl)piperidin-1-yl)(piperidin-3-yl)methanone]
IC50 (human TLR7): < 100 nM | IC50 (human TLR8): 100 to 1000 nM | IC50 (human TLR9): 100 to 1000 nM

CC(C)c1c(-c2ccnc3[nH]ncc23)[nH]c2ccc(C3CCN(C(=O)Cc4c[nH]cn4)CC3)cc12 [Example 612, 2-(1H-imidazol-4-yl)-1-(4-(3-isopropyl-2-(1H-pyrazolo[3,4-b]pyridin-4-yl)-1H-indol-5-yl)piperidin-1-yl)ethan-1-one]
IC50 (human TLR7): < 100 nM | IC50 (human TLR8): < 100 nM | IC50 (human TLR9): 1000 to 50000 nM

Cc1cc2cc(-c3[nH]c4ccc(C5CCN(CC(=O)N(C)C)CC5)cc4c3C(C)C)cc(CC(C)C)n2n1 [Example 393, 2-(4-(2-(7-isobutyl-2-methylpyrazolo[1,5-a]pyridin-5-yl)-3-isopropyl-1H-indol-5-yl)piperidin-1-yl)-N,N-dimethylacetamide]
IC50 (human TLR7): > 3130 nM | IC50 (human TLR8): > 3130 nM | IC50 (human TLR9): 1000 to 50000 nM

CC(C)c1c(-c2cc3c(s2)CNCC3)[nH]c2ccc(C3CCNCC3)cc12 [Example 207, 2-(3-isopropyl-5-(piperidin-4-yl)-1H-indol-2-yl)-4,5,6,7-tetrahydrothieno [2,3-c]pyridine]
IC50 (human TLR7): 100 to 1000 nM | IC50 (human TLR8): 1000 to 50000 nM | IC50 (human TLR9): < 100 nM
